These results are taken from ChEMBL document CHEMBL1129278, “Binding of arylpiperazines, (aryloxy)propanolamines, and tetrahydropyridylindoles to the 5-HT1A receptor: contribution of the molecular lipophilicity potential to three-dimensional quantitative structure-affinity relationship models” (J Med Chem, 1996).

The test has as its target T1, 5-hydroxytryptamine receptor 1A (Rattus norvegicus, UniProt P19327).
T1 sequence (P19327 whole entry): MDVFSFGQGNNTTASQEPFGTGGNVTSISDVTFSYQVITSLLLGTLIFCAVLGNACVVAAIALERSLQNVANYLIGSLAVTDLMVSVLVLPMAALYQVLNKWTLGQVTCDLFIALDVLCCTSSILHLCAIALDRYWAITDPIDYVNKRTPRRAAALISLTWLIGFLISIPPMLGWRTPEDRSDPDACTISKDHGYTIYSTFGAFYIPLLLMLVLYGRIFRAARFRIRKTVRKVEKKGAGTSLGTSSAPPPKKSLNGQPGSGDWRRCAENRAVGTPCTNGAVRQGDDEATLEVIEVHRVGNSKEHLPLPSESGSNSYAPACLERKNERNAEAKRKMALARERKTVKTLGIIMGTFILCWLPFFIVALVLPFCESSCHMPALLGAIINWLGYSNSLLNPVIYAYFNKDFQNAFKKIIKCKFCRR

For orientation: Ki means a measure of affinity in units of concentration, obtained from inhibition or displacement.

With `CCCN(CCCCNC(=O)c1ccccc1OC)C1COc2cccc(OC)c2C1` (configuration not stated), the Ki is 0.501 nM.

With `Oc1ccc2[nH]cc(C3=CCNCC3)c2c1`, the Ki is 15.1 nM.

`CCCN(CCC)CC(O)CO` (configuration not stated) showed a Ki of 2750 nM.

The compound `CCCN(CCCCNS(=O)(=O)c1ccc(C)cc1)C1COc2cccc(OC)c2C1` (configuration not stated) had a Ki of 1 nM.

`CCCOCOCCc1ccc(OCC(O)CNC(C)C)cc1` (configuration not stated) had a Ki of 10000 nM.

As to `CCCN(CCCCN1C(=O)c2ccccc2C1=O)C1COc2cccc(OC)c2C1` (configuration not stated), the Ki was 2.51 nM.

Compound `O=C1CC2(CCCC2)CC(=O)N1CCN1CCN(c2ncccn2)CC1` gave an inhibition constant Ki of 151 nM.

Consider `CC(C)NCC(O)COc1ccccc1` (configuration not stated), for which affinity was put at a Ki of 170 nM.

Regarding `CCCN(CCC)C1CCc2cccc(CO)c2C1` (configuration not stated), the Ki was 129 nM.

Consider `O=C(c1ccccc1)N1CCN(c2cccc(Cl)c2)CC1`, for which the Ki is 100000 nM.

As to `CCCN(CCCCN1CCOCC1)C1COc2cccc(OC)c2C1` (configuration not stated), the Ki is 3.98 nM.

For the compound `COc1ccccc1N1CCN(CCCCNC2CC3CCC2C3)CC1` (configuration not stated), the affinity, expressed as Ki, was 3.98 nM.

The compound `CCCN(CCCCN1CCCCC1)C1COc2cccc(OC)c2C1` (configuration not stated) gave a Ki of 1 nM.

Turning to `CCCN(CCC)C1CCc2cccc(C(=O)O)c2C1` (configuration not stated), affinity was put at a Ki of 302 nM.

Turning to `CCCc1ccc2c(c1CCC)CC(N(CCC)CCC)CO2` (configuration not stated), the Ki was 10000 nM.

`CC(C)NCC(O)COc1ccccc1-n1cccc1` (configuration not stated) [ISAMOLTAN]: the Ki was 49 nM.

Compound `CCCN(CCCCN1C(=O)CC2(CCCC2)CC1=O)C1COc2cccc(O)c2C1` (stereo in doubt; 228) showed a Ki of 10 nM.

Compound `COc1ccccc1OCCNCC(O)COc1cccc2[nH]c3ccccc3c12` (configuration not stated) [CARVEDILOL] had a Ki of 3.16 nM.

With `c1ccc2c(c1)CCC2N1CCN(c2cccc3c2OCCO3)CC1` (configuration not stated), the affinity corresponds to a Ki of 1.82 nM.

On to `Cn1cc(C(F)(F)F)nc1-c1ccc(OCC(O)CNCCOc2ccc(O)c(C(N)=O)c2)cc1` (configuration not stated) [CGP-20712A], for which the Ki was 603 nM.

As to `CCCN(CCC)C1CCc2cccc(C(C)=O)c2C1` (configuration not stated), the affinity corresponds to a Ki of 0.708 nM.

`CC(C)(C)NCC(O)COc1cccc2c1SCCC2` (configuration not stated) [TERTATOLOL]: the Ki is 18.6 nM.

As for `NCCCCN1CCN(c2ccccc2)CC1`, the Ki was 6030 nM.

In the case of `COc1cccc2c1CC(N1CCCC1)CO2` (configuration not stated), the Ki was 3.47 nM.

The compound `C#Cc1cccc2c1CC(N(CCC)CCC)CC2` (configuration not stated) showed a Ki of 15.8 nM.

Compound `c1ccc(N2CCNCC2)cc1` [PHENYLPIPERAZINE] had a Ki of 1510 nM.

In turn, `C=CCN(CCC)C1CCc2cccc(OS(=O)(=O)C(F)(F)F)c2C1` (configuration not stated) showed a Ki of 9.55 nM.

The compound `CCCN(CCNC(C)=O)C1COc2cccc(OC)c2C1` (configuration not stated) had a Ki of 20 nM.

For `C=CCOc1ccccc1OCC(O)CNC(C)C` (configuration not stated) [OXPRENOLOL], the Ki was 93.3 nM.

For `CNCCc1c[nH]c2ccc(O)cc12`, affinity was put at a Ki of 4.9 nM.

For the compound `CCCN(CCN1C(=O)c2ccccc2C1=O)C1COc2cccc(OC)c2C1` (configuration not stated), the Ki is 398 nM.

`CN(C)CC(O)CO` (stereo in doubt; 122): affinity was put at a Ki of 5010 nM.

Turning to `CN1CCN(c2cccc3ccoc23)CC1`, the Ki is 7.94 nM.

Compound `CC(O)CN(CC(C)O)CC(O)COc1cccc2ccccc12` (configuration not stated) showed a Ki of 1320 nM.

`CN1CC=C(c2c[nH]c3ccc([N+](=O)[O-])cc23)CC1` had a Ki of 37.2 nM.

`CCCN(CCCCN1C(=O)CC(C)(C)CC1=O)C1COc2cccc(OC)c2C1` (configuration not stated) gave a Ki of 2 nM.

`Brc1ccc2[nH]cc(C3=CCNCC3)c2c1`: the affinity, expressed as Ki, was 6.46 nM.

`C=C=CN1CCN(c2cccc(Cl)c2)CC1` gave a Ki of 251 nM.

With `CNCC(O)CO` (configuration not stated), the Ki is 3310 nM.

Consider `CC(C)(C)NCC(O)COc1cccc2c1NC(=O)CC2` (configuration not stated), for which the Ki is 224 nM.

Regarding `Cn1cc(CCN)c2c3c(ccc21)OCCC3`, the affinity, expressed as Ki, was 2630 nM.

Compound `O=C1c2ccccc2C(=O)N1CCCCN1CCN(c2ccccc2)CC1` showed a Ki of 8.51 nM.

As for `Oc1ccc2cccc(N3CCNCC3)c2c1`, the Ki is 3.31 nM.

Regarding `CC1(C)CC(=O)N(CCCCN2CCN(c3ccccn3)CC2)C(=O)C1`, the Ki stood at 70.8 nM.

For `COc1ccccc1N1CCN(CCCN2C(=O)c3ccccc3C2=O)CC1`, the Ki was 20 nM.

In turn, `NCCc1c[nH]c2ccc3c(c12)CCCO3` showed a Ki of 302 nM.

The compound `CCCNC1CCc2cccc(OC)c2C1` (configuration not stated) showed a Ki of 4.79 nM.

`Cc1ccc2[nH]cc(C3=CCN(C)CC3)c2c1` showed a Ki of 31.6 nM.

The compound `CCCN(CCC)C1COc2cccc(O)c2C1` (configuration not stated) showed a Ki of 2 nM.

In turn, `CN1CCN(c2cccc3c2OCCO3)CC1` showed a Ki of 22.9 nM.

`COc1ccccc1N1CCN(CCCCN2C(=O)CC3(CCCC3)CC2=O)CC1`: affinity was put at a Ki of 2 nM.

For the compound `FC(F)(F)c1ccc2c(c1)nc(N1CCNCC1)c1cccn12`, the Ki was 18.6 nM.

The compound `CCCN(CCCCN1C(=O)CC2(CCCC2)CC1=O)C1COc2ccccc2C1` (configuration not stated) gave a Ki of 1 nM.

Regarding `COc1ccccc1N1CCN(CCCCNC(=O)C2CCCCC2)CC1`, the affinity corresponds to a Ki of 0.603 nM.

Consider `COc1ccccc1N1CCNCC1`, for which the affinity corresponds to a Ki of 12.9 nM.

Compound `CCCN(CCC)C1COc2cccc(OC)c2C1` (configuration not stated) gave a Ki of 10 nM.

`CC(C)(C)NC[C@H](O)COc1ccccc1C1CCCC1` [PENBUTOLOL] gave a Ki of 2.4 nM.

Consider `CCCN(CCCCNC(=O)c1ccc(F)cc1)C1COc2cccc(OC)c2C1` (configuration not stated), for which the affinity, expressed as Ki, was 0.2 nM.

`O=C(NCCN1CCN(/C(O)=C2/COCCO2)CC1)c1ccc(F)cc1` had a Ki of 9.12 nM.

Take `Cc1[nH]c2ccc(O)cc2c1CCN`: the affinity, expressed as Ki, was 2510 nM.

`CCCN(C1COc2cccc(OC)c2C1)N1C(=O)C2CCCC2C1=O` (stereo in doubt; 247) showed a Ki of 1 nM.

Turning to `c1ccc2cc(N3CCNCC3)ccc2c1`, the Ki was 3240 nM.

Compound `CC(C)NCC(O)COc1ccc(CCOCCOC(C)C)cc1` (configuration not stated) gave a Ki of 10000 nM.

Compound `CN1CC=C(c2c[nH]c3ccc(C4COCCO4)cc23)CC1` (configuration not stated) had a Ki of 87.1 nM.

Compound `CCCCN1CCN(c2cccc3ccccc23)CC1` showed a Ki of 7.08 nM.

In turn, `O=C1c2ccccc2C(=O)N1CCN1CCN(c2ccccc2)CC1` had a Ki of 10000 nM.

Compound `Fc1ccc2[nH]cc(C3=CCNCC3)c2c1` showed a Ki of 32.4 nM.

On to `COc1cccc2c1CC(N)CC2` (configuration not stated), for which the Ki was 178 nM.

Regarding `CCCCN(CCCC)CC(O)COc1cccc2ccccc12` (configuration not stated), the Ki was 224 nM.

The compound `COc1ccccc1N1CCN(CCCc2ccccc2)CC1` gave a Ki of 3.72 nM.

In the case of `CCCCN1CCN(c2ccccc2OC)CC1`, affinity was put at a Ki of 129 nM.

As to `CCCN(C1COc2cccc(OC)c2C1)N1C(=O)C2CCCC2C1=O` (stereo in doubt; 255), the affinity corresponds to a Ki of 0.501 nM.

`CCN(CC)C(=O)Nc1ccc(OCC(O)CNC(C)(C)C)c(C(C)=O)c1` (configuration not stated) [CELIPROLOL] had a Ki of 8910 nM.

Consider `COc1ccccc1OCC(O)CN(C)C` (configuration not stated), for which the Ki is 3020 nM.

`CCCN(CCC)C1CCc2cccc(C#N)c2C1` (configuration not stated) had a Ki of 37.2 nM.

For `C[C@H](CCc1ccccc1)NC[C@H](O)c1ccc(O)c(C(N)=O)c1` [DILEVALOL], the affinity, expressed as Ki, was 295 nM.

For the compound `COc1ccccc1N1CCN(CCCOc2cccc3ccccc23)CC1`, the Ki is 8.91 nM.

`CN(C)CC(O)COc1ccccc1O` (configuration not stated): the Ki was 4900 nM.

On to `CC(C)(C)NCC(O)COc1ccc2c(c1)C[C@H](O)[C@H](O)C2` (some centres not stated), for which the Ki is 1070 nM.

As to `Cc1ccc(OCC(O)CNC(C)C)c2c1CCC2` (configuration not stated), the Ki was 19100 nM.

Compound `CCCN(CCCNS(=O)(=O)c1ccc(C)cc1)C1COc2cccc(OC)c2C1` (configuration not stated) showed a Ki of 1.51 nM.

For `COc1ccccc1N1CCN(CCCCCc2ccccc2)CC1`, the affinity, expressed as Ki, was 5.62 nM.

For the compound `O=C1C=CC(c2[nH]c3ccccc3c2C2=CCNCC2)=NC1`, affinity was put at a Ki of 1510 nM.

Compound `COc1ccccc1N1CCN(CCCCNc2ccc([N+](=O)[O-])c3nonc23)CC1` showed a Ki of 0.398 nM.

As for `COc1ccccc1N1CCN(CCN2C(=O)c3ccccc3C2=O)CC1`, the affinity, expressed as Ki, was 1000 nM.

In turn, `CCCN(CCC)C1CCc2cccc(C(=O)C3CCCCC3)c2C1` (configuration not stated) gave a Ki of 15.8 nM.

Regarding `COc1ccccc1N1CCN(CCc2ccccc2)CC1`, the Ki is 1.82 nM.

Turning to `CC(C)CN1CCN(c2cccc(Cl)c2)CC1`, the Ki was 64.6 nM.

In turn, `CCCN(CCNS(=O)(=O)c1ccc(C)cc1)C1COc2cccc(OC)c2C1` (configuration not stated) had a Ki of 1 nM.

As for `CN(C)CCc1cn(C)c2ccc3c(c12)CCCO3`, the Ki is 2690 nM.

Consider `CCCN(CCCN1C(=O)c2ccccc2C1=O)C1COc2cccc(OC)c2C1` (configuration not stated), for which the Ki is 50.1 nM.

The compound `CN(C)CCc1c[nH]c2ccc(O)cc12` [BUFOTENINE] gave a Ki of 25.1 nM.

On to `CN1CC=C(c2c[nH]c3ccc(N)cc23)CC1`, for which the Ki was 24500 nM.

`CCCN(CCN1C(=O)CC2(CCCC2)CC1=O)C1COc2cccc(OC)c2C1` (configuration not stated): affinity was put at a Ki of 15.1 nM.

The compound `O=C1c2ccccc2C(=O)N1CCCCN1CCN(c2ccccc2Cl)CC1` had a Ki of 5.01 nM.

For the compound `CC(=O)N1CCN(c2cccc(Cl)c2)CC1`, the affinity, expressed as Ki, was 100000 nM.

`CCCCCCCCN1CCN(c2ccccc2)CC1` showed a Ki of 11.2 nM.

As for `CC(C)(C)NC[C@H](O)COc1nsnc1N1CCOCC1` [TIMOLOL], the Ki was 617 nM.

For `NCCc1c[nH]c2ccc(C(N)=O)cc12`, the Ki is 0.295 nM.

Regarding `CN(C)CC(O)COc1cccc2ccccc12` (configuration not stated), the Ki was 347 nM.

In the case of `CC(CN)c1c[nH]c2ccc(O)cc12` (configuration not stated), the affinity corresponds to a Ki of 85.1 nM.

`N#Cc1ccc2[nH]cc(C3=CCNCC3)c2c1` showed a Ki of 16.2 nM.
